The values that follow are results of earlier work, collected in patent US20040247544A1, “Use of dialkyl sulphones in cosmetic nailcare compositions for promoting growth of the nails” (L'OREAL, priority 2002, published 2004).

SMILES strings stand for the structures. Like-named read-outs stand apart in the source and are kept apart here.

Data set [1] deals with nails. The following applies: oral ingestion, aqueous 5% solution, dogs.
The subject of data set [2] is nails.

Take `CS(C)(=O)=O` [MSM, methylsulphonylmethane]: the “growth of the nails” value in the data set on nails [1] was “promotes and stimulates the growth of the nails”. The “strength and brittleness of the nails” value with nails [2] (aqueous formulation containing 10% MSM and 50% water, applied to the nails with cotton wool, left to act for 15 minutes) is “strong and less brittle”. The “brittleness of the nails” value in the data set on nails [2] (nail-varnish removers: standard varnish solvent with 5 to 10% of MSM) and in the data set with nails [2] (solvent-based (ethyl acetate or amyl acetate) varnish containing 5% by weight of MSM) was “less brittle” throughout.
